Laboratory results as given in US7141592B2, “Substituted oxadiazolidinediones” (Wyeth, priority 2003, dated 2006).
pIC50: −log10 of the molar value.

Key:
human PAI-1 = human PAI-1 (Homo sapiens, UniProt P05121); experiment: Assay for determining IC50 of inhibition of PAI-1 (active PAI-1 bound to tPA-coated plate, 33B8 antibody detection); type: biochemical; conditions: values carry suffix (K), not defined in the patent
Procedure: This assay is based upon the non-SDS dissociable interaction between tPA and active PAI-1. Assay plates are initially coated with human tPA (10 μg/ml). Substituted oxadiazolidinediones of the present invention are dissolved in DMSO at 10 mM, then diluted with physiologic buffer (pH 7.5) to a final concentration of 1–50 μM. Test compounds are incubated with human PAI-1 (50 ng/ml) for 15 minutes at room temperature. The tPA-coated plate is washed with a solution of 0.05% Tween 20 and 0.1% BSA, then the plate is blocked with a solution of 3% BSA. An aliquot of the substituted oxadiazolidinedione/PAI-1 solution is then added to the tPA-coated plate, incubated at room temperature for 1 hour, and washed. Active PAI-1 bound to the plate is assessed by adding an aliquot of a 1:1000 dilution of the 33B8 monoclonal antibody against human PAI-1, and incubating the plate at room temperature for 1 hour (Molecular Innovations, Royal Oak, Mich.). The plate is again washed, and a solution of goat anti-mouse IgG-alkaline phosphatase conjugate is added at a 1:50,000 dilution in goat serum. The plate is incubated 30 minutes at room temperature, washed, and a solution of alkaline phosphatase substrate is added. The plate is incubated 45 minutes at room temperature, and color development is determined at OD405nm. The quantitation of active PAI-1 bound to tPA at varying concentrations of the substituted oxadiazolidinedione is used to determine the IC50. Results are analyzed using a logarithmic best-fit equation. The assay sensitivity is 5 ng/ml of human PAI-1 as determined from a standard curve ranging from 0–100 ng/ml.

[1] = target: T1, recombinant human plasminogen activator inhibitor-1 (PAI-1) (Homo sapiens, UniProt P05121); experiment: Primary screen for the PAI-1 inhibition (chromogenic tPA activity, Spectrozyme-tPA); type: biochemical; conditions: compound at 100 μM
T1 construct: purchased Molecular Innovations, Royal Oak, Mich
Procedure: Test compounds are dissolved in DMSO at a final concentration of 10 mM, then diluted 100× in physiologic buffer. The inhibitory assay is initiated by the addition of the substituted oxadiazolidinedione (1–100 μM final concentration, maximun DMSO concentration of 0.2%) in a pH 6.6 buffer containing 140 nM recombinant human plasminogen activator inhibitor-1 (PAI-1; Molecular Innovations, Royal Oak, Mich.). Following a 1 hour incubation at room temperature, 70 nM of recombinant human tissue plasminogen activator (tPA) is added, and the combination of the substituted oxadiazolidinedione, PAI-1 and tPA is incubated for an additional 30 minutes. Following the second incubation, Spectrozyme-tPA (American Diagnostica, Greenwich, Conn.), a chromogenic substrate for tPA, is added and absorbance read at 405 nm at 0 and 60 minutes. Relative PAI-1 inhibition is equal to the residual tPA activity in the presence of the test compound and PAI-1. Control treatments include the complete inhibition of tPA by PAI-1 at the molar ratio employed (2:1), and the absence of any effect of the substituted oxadiazolidinedione on tPA alone.

T1 sequence (P05121 24-402): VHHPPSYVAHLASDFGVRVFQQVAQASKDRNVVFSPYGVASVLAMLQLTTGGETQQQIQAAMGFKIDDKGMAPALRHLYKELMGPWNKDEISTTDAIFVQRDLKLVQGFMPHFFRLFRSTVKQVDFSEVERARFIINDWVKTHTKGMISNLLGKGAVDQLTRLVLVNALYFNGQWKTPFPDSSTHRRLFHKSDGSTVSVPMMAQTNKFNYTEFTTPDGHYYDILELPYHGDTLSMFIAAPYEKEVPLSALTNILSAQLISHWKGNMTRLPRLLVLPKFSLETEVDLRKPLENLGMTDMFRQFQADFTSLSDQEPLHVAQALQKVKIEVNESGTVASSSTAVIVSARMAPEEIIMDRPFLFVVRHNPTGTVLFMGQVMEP
Sequence of human PAI-1 (P05121 24-402): as above

Row | Compound | pIC50 (human PAI-1) | inhibition at 100 µM [1] [%]
1 | CC(C)(C)c1ccc(COc2ccc3c(c2)c(Cn2oc(=O)[nH]c2=O)cn3Cc2ccccc2)cc1 [Compound 1, 2-({1-benzyl-5-[(4-tert-butylbenzyl)oxy]-1H-indol-3-yl}methyl)-1,2,4-oxadiazolidine-3,5-dione] | 4.86 | 96
2 | O=c1[nH]c(=O)n(Cc2cn(Cc3ccccc3)c3ccc(OCc4cccc(Cl)c4)cc23)o1 [Compound 9, 2-({1-benzyl-5-[(3-chlorobenzyl)oxy]-1H-indol-3-yl}methyl)-1,2,4-oxadiazolidine-3,5-dione] | 4.58 | 92
3 | O=c1[nH]c(=O)n(Cc2cn(Cc3ccccc3)c3ccc(OCc4cccc(C(F)(F)F)c4)cc23)o1 [Compound 10, 2-[(1-benzyl-5-{[3-(trifluoromethyl)benzyl]oxy}-1H-indol-3-yl)methyl]-1,2,4-oxadiazolidine-3,5-dione] | 5.03 | 92
4 | Cc1cccc(COc2cccc(Cn3oc(=O)[nH]c3=O)c2OCc2cccc(C)c2)c1 [Compound 82, 2-{2,3-bis[(3-methylbenzyl)oxy]benzyl}-1,2,4-oxadiazolidine-3,5-dione] | – | 80
5 | O=c1[nH]c(=O)n(Cc2cccc(OCc3cccc(Cl)c3)c2OCc2cccc(Cl)c2)o1 [Compound 83, 2-{2,3-bis[(3-chlorobenzyl)oxy]benzyl}-1,2,4-oxadiazolidine-3,5-dione] | – | 95
6 | O=c1[nH]c(=O)n(Cc2cccc(OCc3cccc(Br)c3)c2OCc2cccc(Br)c2)o1 [Compound 84, 2-{2,3-bis[(3-bromobenzyl)oxy]benzyl}-1,2,4-oxadiazolidine-3,5-dione] | – | 95
7 | O=c1[nH]c(=O)n(Cc2cccc(OCc3ccccc3Br)c2OCc2ccccc2Br)o1 [Compound 85, 2-{2,3-bis[(2-bromobenzyl)oxy]benzyl}-1,2,4-oxadiazolidine-3,5-dione] | – | 93
8 | O=c1[nH]c(=O)n(Cc2ccc(OCc3ccc(C(F)(F)F)cc3)c(OCc3ccc(C(F)(F)F)cc3)c2)o1 [Compound 86, 2-(3,4-bis{[4-(trifluoromethyl)benzyl]oxy}benzyl)-1,2,4-oxadiazolidine-3,5-dione] | – | 94
9 | Cc1cccc(COc2ccc(Cn3oc(=O)[nH]c3=O)cc2OCc2cccc(C)c2)c1 [Compound 87, 2-{3,4-bis[(3-methylbenzyl)oxy]benzyl}-1,2,4-oxadiazolidine-3,5-dione] | – | 92
10 | O=c1[nH]c(=O)n(Cc2ccc(OCc3cccc(Cl)c3)c(OCc3cccc(Cl)c3)c2)o1 [Compound 88, 2-{3,4-bis[(3-chlorobenzyl)oxy]benzyl}-1,2,4-oxadiazolidine-3,5-dione] | – | 91
11 | O=c1[nH]c(=O)n(Cc2ccc(OCc3cccc(Br)c3)c(OCc3cccc(Br)c3)c2)o1 [Compound 89, 2-{3,4-bis[(3-bromobenzyl)oxy]benzyl}-1,2,4-oxadiazolidine-3,5-dione] | – | 88
12 | O=c1[nH]c(=O)n(Cc2ccc(OCc3ccccc3Br)c(OCc3ccccc3Br)c2)o1 [Compound 90, 2-{3,4-bis[(2-bromobenzyl)oxy]benzyl}-1,2,4-oxadiazolidine-3,5-dione] | – | 94
